#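 Briefly, cells in 96-well plates were exposed to five compound concentrations for 48 h, and endpoints were estimated by linear interpolation. GI50 = concentration required for 50% inhibition of growth.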 Active and inactive are the calls of the source. No stated cut-off is given here; in the data, active = GI50 up to about 1.1 µM and inactive = higher.
# Key:
# Test in all cases: DTP human tumour cell line panel, 48 h
# HL-60 = test system: HL-60
# Malme-3M = test system: Malme-3M
# OVCAR-3 = test system: OVCAR-3
# LOX IMVI = test system: LOX IMVI
# Hs-578T = test system: Hs-578T
# UACC-257 = test system: UACC-257
# MOLT-4 = test system: MOLT-4
# MDA-MB-231 = test system: MDA-MB-231
# OVCAR-8 = test system: OVCAR-8
# MDA-MB-435 = test system: MDA-MB-435
# DU-145 = test system: DU-145
# 786-0 = test system: 786-0
# UO-31 = test system: UO-31
# EKVX = test system: EKVX
# HT-29 = test system: HT-29
# COLO 205 = test system: COLO 205
# U-251 = test system: U-251
# OVCAR-5 = test system: OVCAR-5
# SK-MEL-28 = test system: SK-MEL-28
# RPMI-8226 = test system: RPMI-8226
SMILES,GI50 (HL-60),GI50 (Malme-3M),GI50 (OVCAR-3),GI50 (LOX IMVI),GI50 (Hs-578T),GI50 (UACC-257),GI50 (MOLT-4),GI50 (MDA-MB-231),GI50 (OVCAR-8),GI50 (MDA-MB-435),GI50 (DU-145),GI50 (786-0),GI50 (UO-31),GI50 (EKVX),GI50 (HT-29),GI50 (COLO 205),GI50 (U-251),GI50 (OVCAR-5),GI50 (SK-MEL-28),GI50 (RPMI-8226)
Cn1c(COC(=O)NC2CCCCC2)c(COC(=O)NC2CCCCC2)c2ccc3cc(C=O)ccc3c21,38.1 µM (inactive),> 100 µM (inactive),> 100 µM (inactive),> 100 µM (inactive),35.3 µM (inactive),> 100 µM (inactive),> 100 µM (inactive),85.1 µM (inactive),> 100 µM (inactive),45.7 µM (inactive),> 100 µM (inactive),83.6 µM (inactive),> 100 µM (inactive),> 100 µM (inactive),> 100 µM (inactive),> 100 µM (inactive),27.9 µM (inactive),> 100 µM (inactive),,
CN(C)CCNc1ncnc2nc(-c3ccccc3)c(-c3ccccc3)nc12,> 100 µM (inactive),> 100 µM (inactive),> 100 µM (inactive),> 100 µM (inactive),> 100 µM (inactive),> 100 µM (inactive),0.094 µM (active),> 100 µM (inactive),> 100 µM (inactive),> 100 µM (inactive),> 100 µM (inactive),> 100 µM (inactive),> 100 µM (inactive),> 100 µM (inactive),> 100 µM (inactive),> 100 µM (inactive),> 100 µM (inactive),> 100 µM (inactive),> 100 µM (inactive),
O=c1[nH]c(=O)c2c3n(cc2[nH]1)CCCCC3,> 100 µM (inactive),> 100 µM (inactive),,> 100 µM (inactive),> 100 µM (inactive),> 100 µM (inactive),> 100 µM (inactive),64.4 µM (inactive),> 100 µM (inactive),> 100 µM (inactive),> 100 µM (inactive),> 100 µM (inactive),> 100 µM (inactive),> 100 µM (inactive),> 100 µM (inactive),> 100 µM (inactive),> 100 µM (inactive),> 100 µM (inactive),> 100 µM (inactive),> 100 µM (inactive)
COCN1C(=O)[C@@H]2CCCN2C(=O)c2ccc(Cl)cc21,> 100 µM (inactive),> 100 µM (inactive),,> 100 µM (inactive),> 100 µM (inactive),> 100 µM (inactive),> 100 µM (inactive),> 100 µM (inactive),> 100 µM (inactive),> 100 µM (inactive),> 100 µM (inactive),> 100 µM (inactive),> 100 µM (inactive),> 100 µM (inactive),> 100 µM (inactive),> 100 µM (inactive),> 100 µM (inactive),> 100 µM (inactive),> 100 µM (inactive),> 100 µM (inactive)
Cc1cc2nc(N3C(=O)/C(=C/c4cccc([N+](=O)[O-])c4)N=C3c3ccccc3)sc2cc1C,19.8 µM (inactive),,32 µM (inactive),19.2 µM (inactive),24.5 µM (inactive),42.6 µM (inactive),12.9 µM (inactive),62.4 µM (inactive),21.4 µM (inactive),12.8 µM (inactive),42.8 µM (inactive),40.3 µM (inactive),32.5 µM (inactive),18.8 µM (inactive),27.5 µM (inactive),36.3 µM (inactive),22.8 µM (inactive),40.2 µM (inactive),57.8 µM (inactive),21.1 µM (inactive)
COc1ccc(N[S+]([O-])c2ccc(Cl)cc2)cc1 (stereo not drawn),38.5 µM (inactive),24.3 µM (inactive),90.4 µM (inactive),31 µM (inactive),23.1 µM (inactive),17.9 µM (inactive),20.6 µM (inactive),50.4 µM (inactive),73.3 µM (inactive),14.8 µM (inactive),43.5 µM (inactive),49.8 µM (inactive),14.6 µM (inactive),55.2 µM (inactive),37.7 µM (inactive),> 100 µM (inactive),11.8 µM (inactive),,> 100 µM (inactive),39.4 µM (inactive)
Cc1ccc(S(=O)(=O)n2cc(C#N)c(C#N)c2)cc1,26.5 µM (inactive),15.6 µM (inactive),22.5 µM (inactive),22.8 µM (inactive),24.7 µM (inactive),29.2 µM (inactive),31.8 µM (inactive),42.6 µM (inactive),31.8 µM (inactive),19.8 µM (inactive),31.4 µM (inactive),36.2 µM (inactive),26.9 µM (inactive),30.2 µM (inactive),23.9 µM (inactive),28.6 µM (inactive),13.3 µM (inactive),27.9 µM (inactive),15.5 µM (inactive),
O=c1/c(=C/c2ccc([N+](=O)[O-])o2)sc2n1[C@@H](c1ccc(Cl)cc1)C=C(c1cc(F)c(Cl)cc1Cl)N=2,12.3 µM (inactive),17.9 µM (inactive),,16 µM (inactive),56.5 µM (inactive),15.4 µM (inactive),12.9 µM (inactive),5.07 µM (inactive),4.16 µM (inactive),16.1 µM (inactive),17.7 µM (inactive),4.71 µM (inactive),14.7 µM (inactive),,6.62 µM (inactive),3.94 µM (inactive),8.02 µM (inactive),16.3 µM (inactive),24.2 µM (inactive),5.16 µM (inactive)
CCCS(=O)(=O)Nc1ccc(Nc2c3ccccc3nc3ccccc23)c(OC)c1,0.126 µM (active),1.04 µM (active),2.3 µM (inactive),0.315 µM (active),3.16 µM (inactive),5.53 µM (inactive),0.0211 µM (active),3.32 µM (inactive),1.2 µM (inactive),5.28 µM (inactive),0.271 µM (active),0.807 µM (active),1.08 µM (active),12.7 µM (inactive),1.75 µM (inactive),2.16 µM (inactive),0.641 µM (active),8.63 µM (inactive),,
Cc1csc(NNC(=O)Nc2ccccc2)n1,> 100 µM (inactive),> 100 µM (inactive),,> 100 µM (inactive),> 100 µM (inactive),> 100 µM (inactive),,> 100 µM (inactive),> 100 µM (inactive),> 100 µM (inactive),> 100 µM (inactive),> 100 µM (inactive),45.7 µM (inactive),> 100 µM (inactive),> 100 µM (inactive),> 100 µM (inactive),> 100 µM (inactive),> 100 µM (inactive),> 100 µM (inactive),> 100 µM (inactive)
O=C1CC(c2ccccc2)n2cccc21 (stereo not drawn),65.6 µM (inactive),,> 100 µM (inactive),> 100 µM (inactive),> 100 µM (inactive),> 100 µM (inactive),> 10 µM (inactive),> 100 µM (inactive),> 100 µM (inactive),> 100 µM (inactive),> 100 µM (inactive),> 100 µM (inactive),67.6 µM (inactive),> 100 µM (inactive),> 100 µM (inactive),> 100 µM (inactive),> 100 µM (inactive),> 100 µM (inactive),> 100 µM (inactive),> 100 µM (inactive)
COc1ccc(/N=N/c2c(C)c(C#N)c(=S)n(C3OC(CO)C(O)C(O)C3O)c2-c2ccccc2)cc1 (stereo not drawn),58.2 µM (inactive),30.6 µM (inactive),24.7 µM (inactive),27.8 µM (inactive),21.5 µM (inactive),48.8 µM (inactive),9.04 µM (inactive),51.1 µM (inactive),,24.5 µM (inactive),32.1 µM (inactive),32 µM (inactive),39.4 µM (inactive),,32.5 µM (inactive),47.5 µM (inactive),29 µM (inactive),36.9 µM (inactive),25.3 µM (inactive),36.1 µM (inactive)
CC12CC(C#N)(C#N)C(C#N)(CO1)C(=N)O2 (stereo not drawn),44.2 µM (inactive),24.2 µM (inactive),> 100 µM (inactive),49.3 µM (inactive),27.7 µM (inactive),> 100 µM (inactive),54.3 µM (inactive),> 100 µM (inactive),> 100 µM (inactive),> 100 µM (inactive),> 100 µM (inactive),> 100 µM (inactive),> 100 µM (inactive),> 100 µM (inactive),69.2 µM (inactive),37.8 µM (inactive),> 100 µM (inactive),> 100 µM (inactive),> 100 µM (inactive),
CO/C(N)=C(C#N)/N=C/c1ccc2ccccc2c1,3.61 µM (inactive),> 100 µM (inactive),24.2 µM (inactive),33.2 µM (inactive),46.7 µM (inactive),7.52 µM (inactive),30.6 µM (inactive),19.5 µM (inactive),72.3 µM (inactive),7.1 µM (inactive),> 100 µM (inactive),78.5 µM (inactive),58.2 µM (inactive),64.3 µM (inactive),18.5 µM (inactive),17.9 µM (inactive),30.8 µM (inactive),,> 100 µM (inactive),17.1 µM (inactive)
CC(C)(C)OC(=O)N1[C@@H]2Cc3ccc(N)cc3[C@@]1(C)c1ccccc12,20.1 µM (inactive),29.9 µM (inactive),20.8 µM (inactive),19.6 µM (inactive),36.6 µM (inactive),27.2 µM (inactive),19 µM (inactive),27.7 µM (inactive),,16.8 µM (inactive),30.3 µM (inactive),19.1 µM (inactive),40.6 µM (inactive),38.3 µM (inactive),21.6 µM (inactive),,17 µM (inactive),42.1 µM (inactive),,21.8 µM (inactive)
